Laboratory results reported in PMC9229843, “Cancer-Related Somatic Mutations in Transmembrane Helices Alter Adenosine A1 Receptor Pharmacology” (Molecules, 2022).
Numbering of substitutions follows the chain as printed.

How the values were obtained:
Experiment in all cases: yeast liquid growth assay
Format in all cases: cell-based
hA1AR A52V^2.47 = target: T1, hA1AR A52V^2.47 (Homo sapiens, UniProt P30542, A52V)
T1 construct: expressed in transfected cells; host or cells: S. cerevisiae MMY24
T1 sequence (P30542 1-326 A52V): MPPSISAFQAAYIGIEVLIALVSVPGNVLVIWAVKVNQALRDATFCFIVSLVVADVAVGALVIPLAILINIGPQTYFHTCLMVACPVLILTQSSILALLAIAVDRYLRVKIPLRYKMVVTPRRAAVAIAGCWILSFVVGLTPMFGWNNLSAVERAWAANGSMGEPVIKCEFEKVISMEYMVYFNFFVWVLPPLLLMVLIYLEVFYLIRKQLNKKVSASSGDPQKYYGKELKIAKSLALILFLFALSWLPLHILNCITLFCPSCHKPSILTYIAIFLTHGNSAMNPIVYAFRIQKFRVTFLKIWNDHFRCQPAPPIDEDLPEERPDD
Description: (§1) The plasmids, pDT-PGK_hA1AR, containing either wild type or mutated hA1AR were transformed into a MMY24 S. cerevisiae strain following the lithium acetate procedure.
(§2) In order to characterize the mutant hA1ARs, liquid growth assays in 96-well plates were performed to obtain concentration–growth curves as previously described. […] The overnight cultures were then diluted to 40,000 cells/mL (OD600 ≈ 0.02) in a selective medium without uracil, leucine, and histidine (YNB-ULH). For the determination of constitutive activity, 50 μL of yeast cells and 150 μL of YNB-ULH medium containing different concentrations of 3-AT and 0.8 IU/mL ADA were then added to each well. To obtain concentration–growth curves, 2 μL of various concentrations of ligands, 50 μL of yeast cells, and 150 μL of YNB-ULH medium containing 7 mM 3-AT and 0.8 IU/mL ADA were then added to each well. After incubation at 30 °C for 35 h in a Genios plate reader (TECAN, Zürich, Switzerland) with shaking for 1 min at 300 rpm every 10 min, the optical density was measured at a wavelength of 595 nm, which represented the level of yeast cell growth.
(§3) All experimental data were analyzed by GraphPad Prism 7.0 or 8.0 (GraphPad Software Inc., San Diego, CA, USA). Data from yeast liquid growth and [^35S]GTPγS binding assays were analyzed by non-linear regression using “log (agonist) vs. response (three parameters)” or “log (inhibitor) vs. response (three parameters)” to obtain potency (EC50), inhibitory potency (IC50), and efficacy (Emax or Imax) values. The radioligand displacement curves were obtained from a statistically preferred one-site or two-site binding model. pKi values were calculated from pIC50 values using the Cheng–Prusoff equation, where KD values were obtained from the homologous competition assays from this study and calculated by non-linear regression using “one site–homologous” [62].

hA1AR D55G^2.50 = target: T2, hA1AR D55G^2.50 (Homo sapiens, UniProt P30542, D55G); conditions: result in words
T2 construct: expressed in transfected cells; host or cells: S. cerevisiae MMY24
T2 sequence (P30542 1-326 D55G): T1 sequence (P30542 1-326 A52V) with V52A, D55G
Description: as §1, §2, §3

hA1AR D55V^2.50 = target: T3, hA1AR D55V^2.50 (Homo sapiens, UniProt P30542, D55V); conditions: result in words
T3 construct: expressed in transfected cells; host or cells: S. cerevisiae MMY24
T3 sequence (P30542 1-326 D55V): T1 sequence (P30542 1-326 A52V) with V52A, D55V
Description: as §1, §2, §3

hA1AR G279S^7.44 = target: T4, hA1AR G279S^7.44 (Homo sapiens, UniProt P30542, G279S); conditions: ratio over basal activity of wild type hA1AR, 7 mM 3-AT
T4 sequence (P30542 1-326 G279S): T1 sequence (P30542 1-326 A52V) with V52A, G279S
Description: as §1, §2, §3

hA1AR L134F^4.52 = target: T5, hA1AR L134F^4.52 (Homo sapiens, UniProt P30542, L134F); conditions: result in words
T5 sequence (P30542 1-326 L134F): T1 sequence (P30542 1-326 A52V) with V52A, L134F
Description: as §1, §2, §3

wild type hA1AR = target: T6, wild type hA1AR (Homo sapiens, UniProt P30542); conditions: ratio over basal activity of wild type hA1AR, 7 mM 3-AT
T6 sequence (P30542 1-326): T1 sequence (P30542 1-326 A52V) with V52A
Description: as §1, §2, §3

## OC[C@H]1O[C@@H](n2cnc3c(NC4CCCC4)ncnc32)[C@H](O)[C@@H]1O [CPA, N^6-cyclopentyladenosine]
hA1AR A52V^2.47
  decrease in potency versus wild type hA1AR: more than 400 fold
hA1AR D55G^2.50
  agonist-induced receptor activation: could not be activated
hA1AR D55V^2.50
  agonist-induced receptor activation: could not be activated
hA1AR G279S^7.44
  Emax: 4.96 ± 0.38
hA1AR L134F^4.52
  agonist-induced receptor activation: could not be activated
Wild type hA1AR
  Emax: 4.83 ± 0.30
